Experimental findings from PMC10160475, “Biological evaluation and in silico studies of novel compounds as potent TAAR1 agonists that could be used in schizophrenia treatment” (Frontiers in Pharmacology, 2023) are described below.

The target of data set [1] is T1, human TAAR1 (Homo sapiens, UniProt Q96RJ0).
T1 construct: expressed in transfected cells; host or cells: cAMP Hunter CHO-K1 AGTRL1 Gi cells
T1 sequence (Q96RJ0 1-339): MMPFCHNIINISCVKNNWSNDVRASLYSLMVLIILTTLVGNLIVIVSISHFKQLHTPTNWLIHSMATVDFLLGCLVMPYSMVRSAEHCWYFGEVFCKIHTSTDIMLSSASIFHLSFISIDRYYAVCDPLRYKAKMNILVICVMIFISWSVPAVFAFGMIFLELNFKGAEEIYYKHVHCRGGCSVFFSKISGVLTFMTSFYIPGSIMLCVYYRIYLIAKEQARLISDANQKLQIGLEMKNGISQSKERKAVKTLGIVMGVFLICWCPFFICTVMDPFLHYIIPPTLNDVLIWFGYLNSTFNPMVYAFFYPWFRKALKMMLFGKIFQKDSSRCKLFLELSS
Nature of the data set: cAMP assay, functional agonist activity at human TAAR1. It counts as cell-based. How it is done:
Cells were seeded in a total volume of 20 µL into white-walled, 384-well microplates, followed by incubation at 37°C for the appropriate time before testing. Different concentrations of compounds were added to cells, and incubation was undertaken at 37°C for 10 min, with p-tyramine used as the MAX control. cAMP modulation was determined using the DiscoverX HitHunter cAMP XS + assay. Percentage activity was calculated using the following equation: Activity %=mean RLUtest sample – mean RLUvehicle control/mean RLUMAX control – mean RLUvehicle control×100%.
In general terms: Changes in cAMP serve as a functional read-out for many G protein-coupled receptors.

Data set [2] relates to MK801-induced schizophrenia-like behavior. As to the kind of experiment: MK801-induced schizophrenia-like behavior (open field, distance traveled). In kind it is in vivo, C57BI/6J mice. How it is done:
Ninety-nine male C57BI/6J mice were divided randomly into 11 groups. Mice were placed in a room 1 h before testing. They were administered (p.o.) vehicle (0.1 ml/10 g), 50A (0.3, 1, 3, and 10 mg/kg; 0.1 ml/10 g), or 50B (0.3, 1, 3, and 10 mg/kg; 0.1 ml/10 g). […] Then, mice were administered (i.p.) MK801 (0.8 mg/kg dissolved in physiologic saline; 0.1 ml/10 g). After 30 min, the distance that mice traveled was measured.
Forty-six male C57BI/6J mice were divided randomly into four groups. The CN group contained four mice. […] The administration method described previously was employed.

For data set [3], the system named is catalepsy. As to the kind of experiment: Catalepsy assay (bar test). To be noted: 100 mg/kg p.o., 30 and 90 min after administration. In kind it is in vivo, C57BI/6J mice. As to the method: Twenty-four male C57BI/6J mice were divided randomly into four groups. Mice were placed in a room 1 h before testing. […] The front paws of mice were placed on a horizontal metal bar raised 2 inches above a Plexiglas™ platform 30 min and 90 min after administration. The time the front paws of mice were placed on the platform was recorded at ≤30 s per trial. Each test was repeated three times.

Broadly, the EC50 is the midpoint of the concentration-response curve. Low values mean an effect from little substance, high ones a need for much substance. A word on the Emax: it is the greatest response seen or fitted, relative to the assay's reference. As to `c1csc([C@H]2CNCCO2)c1` [Compound 50A], the midpoint of the response in data set [1], the EC50, lay at 6.25 µM. For the same compound, in data set [1] (cAMP modulation, p-tyramine as MAX control, read-out: TAAR1 Agonist % Emax), the Emax is 64%. Also, in data set [2] (mice, single oral dose 0.3, 1, 3 and 10 mg/kg, MK801 0.8 mg/kg i.p.), the “Inhibition of MK801-induced schizophrenia-like behavior (effective doses)” value is “only at 1 mg/kg”. Further, the “Distance moved by mice in the presence or absence of MK801” value in data set [2] (single oral dose 0.3, 1, 3 and 10 mg/kg) is reported as “significantly reduced the distance moved by mice”. In data set [3], the “Time mice spent holding bars (catalepsy)” value is given as “did not increase this time”.

In the case of `Cc1nc2n(c(=O)c1CCN1CCC(c3noc4cc(F)ccc34)CC1)CCCC2` [risperidone, reference compound], the MK801-induced schizophrenia-like behavior result in data set [2] (mice, risperidone 0.1 mg/kg p.o., MK801 0.8 mg/kg i.p.) is reported as “significantly reduced”.

With `O=C1CCc2ccc(OCCCCN3CCN(c4cccc(Cl)c4Cl)CC3)cc2N1` [aripiprazole, reference compound], the MK801-induced schizophrenia-like behavior result in data set [2] (mice, aripiprazole 5 mg/kg p.o., MK801 0.8 mg/kg i.p.) is “significantly reduced”.
